Measurements published in the NIST ThermoML archive (doi:10.1016/j.jct.2013.04.003).
± gives the expanded uncertainty stated by the source.

details: 313.15 K; Liquid; Closed cell (Static) method

vapor or sublimation pressure | SMILES
12.95 ± 0.031 kPa | CC(C)CC(C)(C)C [2,2,4-trimethylpentane]
2.483 ± 0.015 kPa | CCCCO [butan-1-ol]
44.98 ± 0.2 kPa | C=CCCCC [hex-1-ene]
